Patent publication US6566304B1, “Biogenic control and limitation of the reproduction of parasitic earth nematodes in stock culture” (priority 1998, dated 2003)

How the values were obtained:
Assay type in all cases: in vivo
[1] = test system: nematode Meloidogyne incognita; assay: Example 6 pot test with tomatoes, reduction of nematicides: gall index; conditions: Example 6, tomatoes, 6 weeks; Aldicarb 1 ppm; fertilized control N/P corresponds to 40 g/m^2 TerraPy B; TerraPy B 20 g/m^2; TerraPy B 20 g/m^2 plus Aldicarb 0.1 ppm
Description: (§1) The gall index is a measure of the damage caused to the root system by the nematodes and is basically a scale of 1 to 10 where 1=undamaged and 10=completely damaged root system.
(§2) Tomatoes were pregerminated in a temperature-controlled (18° C.) greenhouse and, at the two-leaf stage, the plants were each transplanted in a plastic pot (9×9 cm) filled with 500 g of a mixture of field soil and sand (1:1). The test substances were applied 2 days after transplanting. One day later, each pot was inoculated with 1,000 larvae of the nematode Meloidogyne incognita. 6 Weeks later, the test was terminated and the density of the nematodes and also the shoot and root weights of the plants were determined.
(§3) The following variants (with 10 repetitions each) were selected for the tests: fertilized control (quantity of N/P corresponds to 40 g/m^2 TerraPy B) control treated with nematicide (Aldicarb, 1 ppm)
(§4) TerraPy B 20 g/m^2 plus Aldicarb 0.1 ppm
(§5) In addition, pots with all the variants mentioned above which had not been inoculated with nematodes were included in the tests.

[2] = test system: nematode Meloidogyne incognita; assay: Example 7 pot test with tomatoes, combination with mycorrhiza: galls on root system; conditions: Aldicarb 1 ppm, fertilized control N/P corresponds to 2 g/m^2 TerraPy B, TerraPy B 2 g/m^2, mycorrhiza 0.2%
Description: (§6) Tomato seeds were planted in plastic pots (9×9 cm) each filled with 320 g of a mixture of field soil and sand (1:1) in a temperature-controlled greenhouse (18° C.). The test substances were applied 29 days after emergence. Two days later, each pot was inoculated with 1,500 larvae of the nematode Meloidogyne incognita. 9 Weeks later, the test was terminated and the density of the nematodes and the shoot and root weights of the plants were determined.
(§7) The following variants (with 10 repetitions each) were selected for the tests:
(§8) fertilized control (quantity of N/P corresponds to 2 g/m^2 TerraPy B)
(§9) nematicide-treated control (Aldicarb, 1 ppm)
(§10) mycorrhiza fungus mixture 0.2%
(§11) TerraPy B 2 g/m^2 plus mycorrhiza 0.2%
(§12) The mycorrhiza fungus mixture contained a mixed population of various Glomus strains of the species Glomus sclerocystis and G. gigasporum with 950 infectious units per cm^3 (=0.64 g per pot). The mixture was mixed with the pot soil after dilution to 0.2% at the beginning of the test.

[3] = test system: tomatoes; assay: Example 7 pot test with tomatoes, combination with mycorrhiza: plant growth; conditions: Example 7, tomatoes, 1,500 M. incognita larvae per pot, 9 weeks; Aldicarb 1 ppm; fertilized control N/P corresponds to 2 g/m^2 TerraPy B; TerraPy B 2 g/m^2; mycorrhiza 0.2%
Description: as §6, §7, §8, §9, §10, §11, §12

[4] = test system: tomatoes; assay: Example 5 pot test with tomatoes: plant growth; conditions: Example 5, tomatoes, 1,000 M. incognita larvae per pot, 8 weeks; comparators: Aldicarb 1 ppm; fertilized control N/P corresponds to 40 g/m^2 TerraPy B
Description: as §2, with “8” for “6”
(§13) The following variants (with 8 repetitions each) were selected for the tests:
(§14) fertilized control (quantity of N/P corresponds to 40 g/m^2 TerraPy B)
(§15) control treated with nematicide (Aldicarb, 1 ppm)
(§16) The object of this test was to investigate the smaller effective dose of the product.

[5] = test system: nematode Meloidogyne incognita; assay: Example 4 pot test with tomatoes: gall index of root system; conditions: Example 4, tomatoes, 8 weeks; scale 1 to 10 (1=undamaged, 10=completely damaged root system); comparators: Aldicarb 1 ppm; fertilized control N/P corresponds to 40 g/m^2 TerraPy B
Description: as §2, with “8” for “6”
as §7, §14, §15, §1

[6] = test system: tomatoes; assay: Example 6 pot test with tomatoes, reduction of nematicides: plant growth
Description: as §2, §3, §4, §5

[7] = test system: microorganisms (bacteria per g of soil); assay: Example 3 pot test with sugar beet: soil microorganisms
[8] = test system: tomatoes; assay: Example 4 pot test with tomatoes: plant growth
Description: as §2, with “8” for “6”
as §7, §14, §15

[9] = test system: sugar beet; assay: Example 3 pot test with sugar beet: plant growth
Description: as §2, with “Sugar beet was” for “Tomatoes were”, “500” for “1,000”, “Heterodera schachtii.” for “Meloidogyne incognita.”
as §7
(§17) fertilized control (quantity of N/P corresponds to 40 g/m^2 TerraPy G)
as §15

[10] = test system: microorganisms (bacteria per g of soil); assay: Example 4 pot test with tomatoes: soil microorganisms
Description: as §2, with “8” for “6”
as §7, §14, §15

[11] = test system: nematode Heterodera schachtii; assay: Example 3 pot test with sugar beet: nematode cysts on roots; conditions: Example 3, sugar beet, 6 weeks; comparators: Aldicarb 1 ppm; fertilized control N/P corresponds to 40 g/m^2 TerraPy G
Description: as §2, with “Sugar beet was” for “Tomatoes were”, “500” for “1,000”, “Heterodera schachtii.” for “Meloidogyne incognita.”
as §7, §17, §15

[12] = test system: nematode Meloidogyne incognita; assay: Example 5 pot test with tomatoes: gall index of root system; conditions: Example 5, tomatoes, 8 weeks; scale 1 to 10; comparators: Aldicarb 1 ppm; fertilized control N/P corresponds to 40 g/m^2 TerraPy B
Description: as §1
as §2, with “8” for “6”
as §13, §14, §15, §16

[13] = test system: microorganisms (bacteria per g of soil); assay: Example 5 pot test with tomatoes: soil microorganisms
Description: as §2, with “8” for “6”
as §13, §14, §15, §16

[14] = 2 days, comparators: Aldicarb 1 ppm, fertilized control
[15] = 14 days, comparators: Aldicarb 1 ppm, fertilized control
[16] = 56 days, comparators: Aldicarb 1 ppm, fertilized control
[17] = Example 4, tomatoes, 8 weeks, comparators: Aldicarb 1 ppm, fertilized control N/P corresponds to 40 g/m^2 TerraPy B

CNC(=O)O/N=C/C(C)(C)SC [Aldicarb]
Gall index [1]: 0.5 | Number of galls per root system ([2]; Example 7, tomatoes, 9 weeks): 22 | Number of galls per root system, In percent ([2]; Example 7, unfertilized untreated control = 100%): 19% | Shoot weight [3]: 4.2 g | Shoot weight [4]: 4.2 g | Gall index [5]: 3.9 | plant growth / plant weight, in words ([6]; Example 6, tomato pot test): completely ineffective | Root weight ([6]; Example 6, tomatoes, 6 weeks, Aldicarb 1 ppm, fertilized control N/P corresponds to 40 g/m^2 TerraPy B, TerraPy B 20 g/m^2, TerraPy B 20 g/m^2 plus Aldicarb 0.1 ppm): 1.8 g | Shoot weight ([6]; Example 6, tomatoes, 1,000 M. incognita larvae per pot, 6 weeks, Aldicarb 1 ppm, fertilized control N/P corresponds to 40 g/m^2 TerraPy B, TerraPy B 20 g/m^2, TerraPy B 20 g/m^2 plus Aldicarb 0.1 ppm): 3 g | effect on bacteria / microorganisms, in words [7]: harmful effect | bacteria per g of soil, 2 Days after application [7, 14]: 7 × 10^6 bacteria per g of soil | bacteria per g of soil, 14 Days after application [7, 15]: 8 × 10^6 bacteria per g of soil | bacteria per g of soil, 56 Days after application [7, 16]: 1 × 10^7 bacteria per g of soil | plant growth / plant weight, in words ([8]; Example 4, tomato pot test): not effective in increasing plant weight | Root length in cm [8, 17]: 12.0 cm | Root weight [8, 17]: 1.5 g | Shoot weight ([8]; Example 4, tomatoes, 1,000 M. incognita larvae per pot, 8 weeks, comparators: Aldicarb 1 ppm, fertilized control N/P corresponds to 40 g/m^2 TerraPy B): 4.7 g | plant growth / plant weight, in words ([9]; Example 3, sugar beet pot test): not effective in increasing plant weight | Root weight ([9]; Example 3, sugar beet, 6 weeks, comparators: Aldicarb 1 ppm, fertilized control N/P corresponds to 40 g/m^2 TerraPy G): 0.7 g | Shoot weight ([9]; Example 3, sugar beet, 500 H. schachtii larvae per pot, 6 weeks, comparators: Aldicarb 1 ppm, fertilized control N/P corresponds to 40 g/m^2 TerraPy G): 2.1 g | effect on bacteria / microorganisms, in words [10]: harmful effect | bacteria per g of soil, 2 Days after application [10, 14]: 1 × 10^7 bacteria per g of soil | bacteria per g of soil, 14 Days after application [10, 15]: 4 × 10^7 bacteria per g of soil | bacteria per g of soil, 56 Days after application [10, 16]: 1 × 10^6 bacteria per g of soil | Nematode cysts per g root weight [11]: 15 per g root weight | Gall index [12]: 4.2 | effect on bacteria / microorganisms, in words [13]: harmful effect | bacteria per g of soil, 2 Days after application [13, 14]: 6 × 10^6 bacteria per g of soil | bacteria per g of soil, 14 Days after application [13, 15]: 1 × 10^6 bacteria per g of soil | bacteria per g of soil, 56 Days after application [13, 16]: 5 × 10^5 bacteria per g of soil
